molecular target: JAK1 (Homo sapiens (Human), UniProt P23458); test: Jak biochemical HTRF assay, JAK1; details: recombinant purified GST-tagged catalytic domain; HTRF format; [ATP] 31.8 μM
Description: Jak Biochemical HTRF Assay Protocol
Subsequent reagent additions employed an Agilent Bravo.

Sequence of JAK1 (P23458 875-1153): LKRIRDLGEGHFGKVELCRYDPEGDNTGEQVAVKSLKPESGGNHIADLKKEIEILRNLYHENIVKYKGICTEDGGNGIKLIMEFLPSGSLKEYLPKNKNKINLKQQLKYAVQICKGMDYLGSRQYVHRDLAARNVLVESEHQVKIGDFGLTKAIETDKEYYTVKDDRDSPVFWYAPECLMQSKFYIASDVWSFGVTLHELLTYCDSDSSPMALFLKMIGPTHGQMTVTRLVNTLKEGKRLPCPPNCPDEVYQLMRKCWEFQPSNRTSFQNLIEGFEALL

Compound | IC50 [nM]
COC1CC(CN2CC[C@@H](C#N)[C@H](n3cc(C(N)=O)c(Nc4ccc(F)cc4)n3)C2)C1 (mixture of isomers) [Example 6-9, 1-{(3S,4R and 3R,4S)-4-cyano-1-[(3-methoxycyclobutyl)methyl]piperidin-3-yl}-3-[(4-fluorophenyl)amino]-1H-pyrazole-4-carboxamide] | 16
Cc1ncc(CN2CC[C@@H](C#N)[C@H](n3cc(C(N)=O)c(Nc4ccc(F)cc4)n3)C2)s1 (racemic) [Example 6-18, 1-{(3S,4R and 3R,4S)-4-cyano-1-[(2-methyl-1,3-thiazol-5-yl)methyl]piperidin-3-yl}-3-[(4-fluorophenyl)amino]-1H-pyrdzole-4-carboxamide] | 1
N#C[C@@H]1CN(CCC2CCOCC2)CC[C@H]1n1cc(C(N)=O)c(Nc2ccc(F)cc2)n1 (racemic) [Example 6-31, 1-{(3R,4R and 3S,4S)-3-cyano-1-[2-(tetrahydro-2H-pyran-4-yl)ethyl]piperidin-4-yl}-3-[(4-fluorophenyl)amino]-1H-pyrazole-4-carboxamide] | 23
N#C[C@@H]1CN(Cc2cccc(F)n2)CC[C@H]1n1cc(C(N)=O)c(Nc2ccc(F)cc2)n1 (racemic) [Example 6-36, 1-{(3R,4R and 3S,4S)-3-cyano-1-[(6-fluoropyridin-2-yl)methyl]piperidin-4-yl}-3-[(4-fluorophenyl)amino]-1H-pyrazole-4-carboxamide] | 2
N#C[C@@H]1CCN(Cc2cncs2)C[C@H]1n1cc(C(N)=O)c(Nc2ccc(F)cc2)n1 (racemic) [Example 7-1, 1-[(3S,4R and 3R,4S)-4-Cyano-1-(1,3-thiazol-5-ylmethyl)piperidin-3-yl]-3-[(4-fluorophenyl)amino]-1H-pyrazole-4-carboxamide] | 0.5

The remaining compounds from weak to strong by IC50, led by results:

IC50 [nM] | Compound
17 | Cn1ccc(CN2CC[C@@H](n3cc(C(N)=O)c(Nc4ccc(F)cc4)n3)[C@H](C#N)C2)n1 (racemic) [Example 6-26, 1-{(3R,4R and 3S,4S)-3-cyano-1-[(1-methyl-1H-pyrazol-3-yl)methyl]piperidin-4-yl}-3-[(4-fluorophenyl)amino]-1H-pyrazole-4-carboxamide]
16 | COC1CC(CN2CC[C@@H](n3cc(C(N)=O)c(Nc4ccc(F)cc4)n3)[C@H](C#N)C2)C1 (mixture of isomers) [Example 6-30, 1-{(3R,4R and 3S,4S)-3-cyano-1-[(3-methoxycyclobutyl)methyl]piperidin-4-yl}-3-[(4-fluorophenyl)amino]-1H-pyrazole-4-carboxamide]
6 | N#C[C@@H]1CN(Cc2cocn2)CC[C@H]1n1cc(C(N)=O)c(Nc2ccc(F)cc2)n1 (racemic) [Example 6-25, 1-[(3R,4R and 3S,4S)-3-cyano-1-(1,3-oxazol-4-ylmethyl)piperidin-4-yl]-3-[(4-fluorophenyl)amino]-1H-pyrazole-4-carboxamide]
6 | N#C[C@@H]1CN(Cc2cncc(F)c2)CC[C@H]1n1cc(C(N)=O)c(Nc2ccc(F)cc2)n1 (racemic) [Example 6-28, 1-{(3R,4R and 3S,4S)-3-cyano-1-[(5-fluoropyridin-3-yl)methyl]piperidin-4-yl}-3-[(4-fluorophenyl)amino]-1H-pyrazole-4-carboxamide]
4 | CC1=NOC(CN2CC[C@@H](n3cc(C(N)=O)c(Nc4ccc(F)cc4)n3)[C@H](C#N)C2)C1 (mixture of isomers) [Example 6-39, 1-{(3R,4R and 3S,4S)-3-cyano-1-[(3-methyl-4,5-dihydroisoxazol-5-yl)methyl]piperidin-4-yl}-3-[(4-fluorophenyl)amino]-1H-pyrazole-4-carboxamide]
1 | N#C[C@@H]1CCN(Cc2cccnc2F)C[C@H]1n1cc(C(N)=O)c(Nc2ccc(F)cc2)n1 (racemic) [Example 6-17, 1-{(3S,4R and 3R,4S)-4-cyano-1-[(2-fluoropyridin-3-yl)methyl]piperidin-3-yl}-3-[(4-fluorophenyl)amino]-1H-pyrazole-4-carboxamide]

From patent US9394282B2, “Pyrazole carboxamides as Janus kinase inhibitors” (Merck Sharp & Dohme Corp., priority 2011, dated 2016)
